Assay results taken from patent publication US20260152501A1, “CYCLIN MODULATOR” (EUBULUS BIOTHERAPEUTICS (HONG KONG) LIMITED, priority 2022, published 2026).

Assays:
Cyclin K = test: Immunohistochemistry (IHC) staining of Cyclin K in HepG2 cells; assay type: cell-based; details: incubated with compound 2 hours, CCNK antibody
Method: Appropriate amount of compounds were added to the cultured cells. The cells were incubated in a tissue culture incubator at 37° C. for 2 hours.
After washing the cultured cells twice with PBS, 100 μL 10% neutral buffered formalin were added and the cells were fixed for 20 minutes.
After washing 3 times with PBS, immunohistochemical staining was performed using CCNK antibody and general two-step detection kit (mouse/rabbit enhanced polymer detection system, PV-9000, Zsbio Inc, Beijing).
Specifically, 100 μL of endogenous peroxidase blocker in the kit was added, cells were incubated at room temperature for 10 minutes; rinsed with PBS buffer for 3 minutes×3 times.
100 μL CCNK antibody 1:5000 dilution was added, and the cells were incubated at 37° C. for 60 minutes; rinsed with PBS buffer for 3 minutes×3 times.
100 μL reaction enhancer was added, and the cells were incubated at 37° C. for 20 minutes; rinsed with PBS buffer for 3 minutes×3 times.
100 μL enhanced enzyme-labeled goat anti-mouse/rabbit IgG polymer was added, and the cells were incubated at 37° C. for 20 minutes; rinsed with PBS buffer for 3 minutes×3 times.
The cells were placed in 75% ethanol, soaked for 3 minutes×2 times; placed in 95% ethanol, soaked for 3 minutes×2 times; after removing excess liquid, placed in anhydrous ethanol, soaked for 3 minutes×3 times; after removing excess liquid, air dried, observed under a microscope and taken pictures after sealing.

HepG2 cells = test: Antiproliferative effect on HepG2 cells; assay type: cell-based; details: Homo sapiens
Method: Reagents: RPMI-1640 medium, McCoy's 5A medium, IMDM medium, MEM medium, L-15 medium, fetal bovine serum, Penicillin-Streptomycin double antibody, trypsin, etc., 2-mercaptoethanol, NEAA, pyruvate, etc.
The test cells were cultured in conventional ways, and the cells should be passed for at least 2 generations before plating.
All cells were subjected to IC50 test for corresponding samples.
The fluorescence intensity of each well was detected using the Alarm blue method, and EC50 was calculated.
IC50 was calculated according to the following formula:
[formula] • wherein, Min, Max and Slope represent the minimum, maximum and slope respectively.

With CC(C)n1cnc2c(NCc3ccc(-c4ccccc4)cc3)nc(N3CCN[C@H](CCO)C3)nc21 [UB-031, (R)-2-(4-(6-(([1,1′-biphenyl]-4-ylmethyl)amino)-9-isopropyl-9H-purin-2-yl)piperazin-2-yl) ethan-1-ol] the “Cyclin K IHC data of HepG2 cells” value (Cyclin K) was “B (31 nM < B <= 93 nM)”.

In the case of CC(C)n1cnc2c(NCc3ccc(-c4ccccc4)cc3)nc(N3CCN[C@H](CO)C3)nc21 [UB-029, (S)-(4-(6-(([1,1′-biphenyl]-4-ylmethyl)amino)-9-isopropyl-9H-purin-2-yl)piperazin-2-yl) methanol], the “Cyclin K IHC data of HepG2 cells” value (Cyclin K) is reported as “B (31 nM < B <= 93 nM)”.

CC(C)n1cnc2c(NCc3ccc(-c4ccccc4)cc3)nc(N3CCNC4(CC4)C3)nc21 [UB-059, N-([1,1′-biphenyl]-4-ylmethyl)-9-isopropyl-2-(4,7-diazaspiro[2.5]octan-7-yl)-9H-purin-6-amine] was tested, and the “Cyclin K IHC data of HepG2 cells” value (Cyclin K) was “B (31 nM < B <= 93 nM)”.

For CC(C)n1cnc2c(NCc3ccc(-c4ccccc4)cc3)nc(N3C[C@@H](C)N[C@@H](C)C3)nc21 [UB-060, N-([1,1′-biphenyl]-4-ylmethyl)-2-((3R,5S)-3,5-dimethylpiperazin-1-yl)-9-isopropyl-9H-purin-6-amine], the “Cyclin K IHC data of HepG2 cells” value (Cyclin K) was “A (A <= 31 nM)”.

With CC(C)n1cnc2c(NCc3ccc(-c4ccccc4)c(OCCO)c3)nc(N3CCNCC3)nc21 [UB-043, 2-((4-(((9-isopropyl-2-(piperazin-1-yl)-9H-purin-6-yl)amino)methyl)-[1,1′-biphenyl]-2-yl)oxy)ethanol] the “Cyclin K IHC data of HepG2 cells” value (Cyclin K) was “D (D > 278 nM)” and the IC50 (HepG2 cells) was 100 to 300 nM.

CC(C)n1cnc2c(NCc3ccc(-c4ccccc4)cc3)nc(NC3CCNCC3)nc21 [UB-016, N6-([1,1′-biphenyl]-4-yl-methyl)-9-isopropyl-N2-(Piperidin-4-yl)-9H-purin-2,6-diamine] was tested, and the “Cyclin K IHC data of HepG2 cells” value (Cyclin K) was “C (93 nM < C <= 278 nM)”.

With CC(C)n1cnc2c(NCc3ccc(-c4ccccc4)cc3)nc(N3CCN[C@@H](C)C3)nc21 [UB-026, (S)-N-([1,1′-biphenyl]-4-ylmethyl)-9-isopropyl-2-(3-methylpiperazin-1-yl)-9H-purin-6-amine] the “Cyclin K IHC data of HepG2 cells” value (Cyclin K) was “B (31 nM < B <= 93 nM)” and the IC50 (HepG2 cells) was < 50 nM.

With CC(C)n1cnc2c(NCc3ccc(-c4ccccc4OCCN)cc3)nc(N3CCNCC3)nc21 [UB-048, N-((2′-(2-aminoethoxy)-[1,1′-biphenyl]-4-yl)methyl)-9-isopropyl-2-(piperazin-1-yl)-9H-purin-6-amine] the “Cyclin K IHC data of HepG2 cells” value (Cyclin K) was “D (D > 278 nM)” and the IC50 (HepG2 cells) was > 300 nM.

With CC(C)n1cnc2c(NCc3ccc(-c4ccccc4)cc3)nc(N3CCN[C@H](C)C3)nc21 [UB-027, (R)-N-([1,1′-biphenyl]-4-ylmethyl)-9-isopropyl-2-(3-methylpiperazin-1-yl)-9H-purin-6-amine] the “Cyclin K IHC data of HepG2 cells” value (Cyclin K) was “A (A <= 31 nM)” and the IC50 (HepG2 cells) was < 50 nM.

In the case of CC(C)n1cnc2c(NCc3ccc(-c4ccccc4)cc3)nc(OC[C@@H]3CNCCN3)nc21 [UB-033, (S)-N-([1,l′-biphenyl]-4-ylmethyl)-9-isopropyl-2-(piperazin-2-ylmethoxy)-9H-purin-6-amine], the “Cyclin K IHC data of HepG2 cells” value (Cyclin K) is reported as “C (93 nM < C <= 278 nM)” and the IC50 (HepG2 cells) is reported as 50 to 100 nM.

In the case of CC(C)n1cnc2c(NCc3ccc(-c4ccccc4)cc3)nc(N3CCNC[C@@H]3CO)nc21 [UB-023, (R)-(1-(6-(([1,1′-biphenyl]-4-ylmethyl)amino)-9-isopropyl-9H-purin-2-yl)piperazin-2-yl) methanol], the “Cyclin K IHC data of HepG2 cells” value (Cyclin K) is reported as “C (93 nM < C <= 278 nM)” and the IC50 (HepG2 cells) is reported as 50 to 100 nM.

In the case of CC(C)n1cnc2c(NCc3ccc(-c4ccccc4OCCCC#N)cc3)nc(N3CCNCC3)nc21 [UB-051, 4-((4′-(((9-isopropyl-2-(piperazin-1-yl)-9H-purin-6-yl)amino)methyl)-[1,1′-biphenyl]-2-yl)oxy)butyronitrile], the “Cyclin K IHC data of HepG2 cells” value (Cyclin K) is reported as “D (D > 278 nM)” and the IC50 (HepG2 cells) is reported as 100 to 300 nM.

CC(C)n1cnc2c(NCc3ccc(-c4ccccc4)cc3)nc(N3CCNC[C@H]3CCO)nc21 [UB-024, (R)-2-(1-(6-(([1,1′-biphenyl]-4-ylmethyl)amino)-9-isopropyl-9H-purin-2-yl)piperazin-2-yl) ethan-1-ol] was tested, and the “Cyclin K IHC data of HepG2 cells” value (Cyclin K) was “A (A <= 31 nM)”.

For CC(C)n1cnc2c(NCc3ccc(-c4ccccc4)c(OCCCCO)c3)nc(N3CCNCC3)nc21 [UB-045, 4-((4-(((9-isopropyl-2-(piperazin-1-yl)-9H-purin-6-yl)amino)methyl)-[1,1′-biphenyl]-2-yl)oxy)butan-1-ol], the “Cyclin K IHC data of HepG2 cells” value (Cyclin K) was “D (D > 278 nM)” and the IC50 (HepG2 cells) was > 300 nM.

CC(C)n1cnc2c(NCc3ccc(-c4ccccc4)c(OCCCC#N)c3)nc(N3CCNCC3)nc21 [UB-063, 4-((4-(((9-isopropyl-2-(piperazin-1-yl)-9H-purin-6-yl)amino)methyl)-[1,1′-biphenyl]-2-yl)oxy)butyronitrile] was tested, and the “Cyclin K IHC data of HepG2 cells” value (Cyclin K) was “D (D > 278 nM)” and the IC50 (HepG2 cells) was 100 to 300 nM.

For CC(C)n1cnc2c(NCc3ccc(-c4ccccc4)cc3)nc(N3CCNC[C@@H]3C)nc21 [UB-021, (S)-N-([1,1′-biphenyl]-4-ylmethyl)-9-isopropyl-2-(2-methylpiperazin-1-yl)-9H-purin-6-amine], the “Cyclin K IHC data of HepG2 cells” value (Cyclin K) was “C (93 nM < C <= 278 nM)” and the IC50 (HepG2 cells) was 50 to 100 nM.

In the case of CCCOc1cc(CNc2nc(N3CCNCC3)nc3c2ncn3C(C)C)ccc1-c1ccccc1 [UB-044, 9-isopropyl-2-(piperazin-1-yl)-N-((2-propoxy-[1,1′-biphenyl]-4-yl)methyl)-9H-purin-6-amine], the “Cyclin K IHC data of HepG2 cells” value (Cyclin K) is reported as “D (D > 278 nM)” and the IC50 (HepG2 cells) is reported as > 300 nM.

In the case of CC(C)n1cnc2c(NCc3ccc(-c4ccccc4)cc3)nc(N[C@H]3C[C@H](N)C3)nc21 [UB-061, N6-([1,1′-biphenyl]-4-yl-methyl)-N2-((1r,3r)-3-aminocyclobutyl)-9-isopropyl-9H-purin-2,6-diamine], the “Cyclin K IHC data of HepG2 cells” value (Cyclin K) is reported as “B (31 nM < B <= 93 nM)” and the IC50 (HepG2 cells) is reported as < 50 nM.

In the case of CC(C)n1cnc2c(NCc3ccc(-c4ccccc4)cc3)nc(N3C[C@@H](C)N[C@H](C)C3)nc21 [UB-032, N-([1,1′-biphenyl]-4-ylmethyl)-2-((3R,5R)-3,5-dimethylpiperazin-1-yl)-9-isopropyl-9H-purin-6-amine], the “Cyclin K IHC data of HepG2 cells” value (Cyclin K) is reported as “D (D > 278 nM)”.

In the case of CC(C)n1cnc2c(NCc3ccc(-c4ccccc4)cc3)nc(N[C@H]3CC[C@@H](N)C3)nc21 [UB-039, N6-([1,1′-biphenyl]-4-yl-methyl)-N2-((1S,3R)-3-aminocyclopentyl)-9-isopropyl-9H-purin-2,6-diamine], the “Cyclin K IHC data of HepG2 cells” value (Cyclin K) is reported as “C (93 nM < C <= 278 nM)” and the IC50 (HepG2 cells) is reported as 50 to 100 nM.

With CCCOc1ccccc1-c1ccc(CNc2nc(N3CCNCC3)nc3c2ncn3C(C)C)cc1 [UB-049, 9-isopropyl-2-(piperazin-1-yl)-N-((2′-propoxy-[1,1′-biphenyl]-4-yl)methyl)-9H-purin-6-amine] the “Cyclin K IHC data of HepG2 cells” value (Cyclin K) was “D (D > 278 nM)” and the IC50 (HepG2 cells) was 100 to 300 nM.

With CC(C)n1cnc2c(NCc3ccc(-c4ccccc4)cc3)nc(N3CCN[C@@H](CCO)C3)nc21 [UB-030, (S)-2-(4-(6-(([1,1′-biphenyl]-4-ylmethyl)amino)-9-isopropyl-9H-purin-2-yl)piperazin-2-yl) ethan-1-ol] the “Cyclin K IHC data of HepG2 cells” value (Cyclin K) was “B (31 nM < B <= 93 nM)”.

In the case of CC(C)n1cnc2c(NCc3ccc(-c4ccccc4)cc3)nc(OC[C@H]3CNCCN3)nc21 [UB-034, (R)-N-([1,1′-biphenyl]-4-ylmethyl)-9-isopropyl-2-(piperazin-2-ylmethoxy)-9H-purin-6-amine], the “Cyclin K IHC data of HepG2 cells” value (Cyclin K) is reported as “C (93 nM < C <= 278 nM)” and the IC50 (HepG2 cells) is reported as 50 to 100 nM.

CC(C)n1cnc2c(NCc3ccc(-c4ccccc4)cc3)nc(N[C@H]3CCNC3)nc21 [UB-037, (S)-N6-([1,1′-biphenyl]-4-ylmethyl)-9-isopropyl-N2-(pyrrolidin-3-yl)-9H-purin-2,6-diamine] was tested, and the “Cyclin K IHC data of HepG2 cells” value (Cyclin K) was “C (93 nM < C <= 278 nM)” and the IC50 (HepG2 cells) was < 50 nM.

CC(C)n1cnc2c(NCc3ccc(-c4ccccc4)c(O)c3)nc(N3CCNCC3)nc21 [UB-042] was tested, and the “Cyclin K IHC data of HepG2 cells” value (Cyclin K) was “B (31 nM < B <= 93 nM)” and the IC50 (HepG2 cells) was < 50 nM.

For CC(C)n1cnc2c(NCc3ccc(-c4ccccc4O)cc3)nc(N3CCNCC3)nc21 [UB-046, 4′-(((9-isopropyl-2-(piperazin-1-yl)-9H-purin-6-yl)amino)methyl)-[1,1′-biphenyl]-2-ol], the “Cyclin K IHC data of HepG2 cells” value (Cyclin K) was “D (D > 278 nM)” and the IC50 (HepG2 cells) was 100 to 300 nM.

In the case of CC(C)n1cnc2c(NCc3ccc(-c4ccccc4)cc3)nc(N3CCN[C@@H](CO)C3)nc21 [UB-028, (R)-(4-(6-(([1,1′-biphenyl]-4-ylmethyl)amino)-9-isopropyl-9H-purin-2-yl)piperazin-2-yl) methanol], the “Cyclin K IHC data of HepG2 cells” value (Cyclin K) is reported as “A (A <= 31 nM)”.

With Fc1cccc(-n2cnc3c(NCc4ccc(-c5ccccc5)cc4)nc(N4CCNCC4)nc32)c1 [UB-054, N-([1,1′-biphenyl]-4-ylmethyl)-9-(3-fluorophenyl)-2-(piperazin-1-yl)-9H-purin-6-amine] the “Cyclin K IHC data of HepG2 cells” value (Cyclin K) was “D (D > 278 nM)”.

In the case of CC(C)n1cnc2c(NCc3ccc(-c4ccccc4)cc3)nc(N3CCNC[C@@H]3CCO)nc21 [UB-025, (S)-2-(1-(6-(([1,1′-biphenyl]-4-ylmethyl)amino)-9-isopropyl-9H-purin-2-yl)piperazin-2-yl) ethan-1-ol], the “Cyclin K IHC data of HepG2 cells” value (Cyclin K) is reported as “A (A <= 31 nM)”.
